“Also recorded” adds a separate entry of the source.
Columns and labels:
[1] = Plasma pharmacokinetics in healthy volunteers; type: in vivo, human; conditions: 15 mg QD Day 1 vs Day 7; 15 mg and 25 mg studies
Protocol: Forty, healthy adult, non-tobacco using men and women were enrolled in the study. A 15 mg Formula (II) dose (1×15 mg capsule) was administered once daily (QD) to each subject for 7 consecutive days (Days 1 to 7) with a washout period (6 days). PD blood samples were collected from each subject before dosing on Day 1, throughout the study, and up to 144 hours after dosing on Day 7 to characterize Formula (II) PD effects. PK sampling for Formula (II) was also collected before dosing on Day 1, throughout the study, and for 24 hours after dosing on Day 7. Additionally, potential Formula (II) safety issues were monitored through physical examination, vital sign measurements, 12 lead electrocardiograms (ECGs), AEs and clinical laboratory tests.
The mean measured plasma concentration of Formula (II) versus time data (PK data) and mean occupancy of BTK by Formula (II) (PD data) were fitted with biophase compartment PK and PD models, respectively to enable prediction of PK and PD for different doses, dose regimens and dose durations. The biophase compartment PK model used to fit Formula (II) concentration versus time data is depicted in FIG. 1(A). The model is a naïve, mean data, two-compartment PK model with a delay d(1,3) for oral absorption. Fitting (optimization) was accomplished via weighed least squares. […]

[2] = system: systemic lupus erythematosus (SLE) in MRL/MpJFASlpr mice; experiment: MRL/MpJFASlpr mouse model of systemic lupus erythematosus; type: in vivo; conditions: for Histopathology Glomerulus Diameter / Histopathology Summed Score / Kidney (paired) Weight (g) / Change in Body Weight (g) wk 1-12 / Histopathology Interstitial Inflammation: mean (SE); for absolute kidney weights, reduction vs Vehicle Disease Controls / absolute mesenteric lymph node weights, reduction vs Vehicle Disease Controls: term animals
Protocol: A study designed to determine the effects of candidate anti-inflammatory agent Formula (II) in oral (PO), daily (QD) administration in the treatment of systemic lupus erythematosus (SLE) in MRL/MpJFASlpr mice. Formula (II) was preformulated in vehicle (0.4% HPMC, 0.1% Tween 80, with simethicone for antifoaming). The female MRL/MpJFASlpr mice were dosed with vehicle or Formula (II) (1, 5, or 25 mg/kg) daily (QD) by the oral (PO) route dosing, or they were dosed QD by the intraperitoneal (IP) route with the reference compound cyclophosphamide (15 mg/kg). Prior to dosing, the candidate anti-inflammatory agent was reconstituted either by vortexing or stirring. […]
Female MRL/MpJFASlpr mice (n=50) that were 8-9 weeks old and weighed approximately 28-41 grams (mean 34 g) at enrollment (mouse age approx. 12 weeks) were obtained from The Jackson Laboratory, Bar Harbor, Me. (stock number 000485). These mice were housed 3-5/cage in shoe-box polycarbonate cages with wire tops, wood chip bedding, and suspended food and water bottles. No concurrent medications were given.
When they were 12 weeks old (study day 0), the female MRL/MpJFASlpr mice (n=10/group) were randomized by body weight into 5 groups as shown above. Treatment was initiated after randomization and continued for […] (mouse age 12 weeks to 23 weeks).
Starting on study week one, and then every week thereafter urine from each animal was tested for proteinuria using the Clinitech Multistick test strip (Bayer). The animals were also observed daily for significant clinical signs, moribundity and mortality. […] Efficacy evaluation was based on animal body weights, proteinuria analysis, lymphadenopathy scores, skin lesion scores, organ weights, anti-dsDNA titers, clinical chemistry parameters, and histopathologic evaluation of the kidneys.
Any animals showing signs of morbundity were terminated immediately. At necropsy (3 h post-dose, mouse age 23 weeks), all remaining animals were anesthetized with Isoflurane and bled via cardiac puncture for serum and plasma (Li Heparin). The animals were bled to exsanguinate then euthanized by cervical dislocation. Spleens, kidneys (paired), and lymph nodes were collected and weighed. Kidneys were collected into 10% neutral buffered formalin (NBF). Spleens were placed in RPMI 1% FBS media for splenocyte isolation. Serum samples for potential clinical chemistry analysis were stored frozen at −80° C. until shipment to Antech Diagnostics. Plasma samples were stored frozen at −80° C. for mouse antidsDNA IgG analysis by ELISA.
Blood samples were drawn via cardiac puncture from Isoflurane anesthetized animals into serum separator microtainer tubes for clinical chemistries. Samples were shipped to Antech Diagnostics for analysis.

[3] = 1 mg/kg PO QD, term animals only
[4] = 5 mg/kg PO QD, term animals only
[5] = 25 mg/kg PO QD, term animals only

CC#CC(=O)N1CCC[C@H]1c1nc(-c2ccc(C(=O)Nc3ccccn3)cc2)c2c(N)nccn12 [Formula (II), (S)-4-(8-amino-3-(1-(but-2-ynoyl)pyrrolidin-2-yl)imidazo[1,5-a]pyrazin-1-yl)-N-(pyridin-2-yl)benzamide]
accumulation or change in PK after repeat dosing [1]: no apparent accumulation; also recorded: little to no accumulation or change in PK after repeat dosing
Percent Survival ([2]; 1 mg/kg PO QD): 100%
Histopathology Glomerulus Diameter ([2]; 1 mg/kg PO QD, All Animals): *87.78 (3.82)
Histopathology Summed Score ([2]; 1 mg/kg PO QD, All Animals): 7.70 (1.07)
Kidney (paired) Weight (g) ([2]; 1 mg/kg PO QD, All Animals): 0.576 (0.03) g
Change in Body Weight (g) wk 1-12 ([2]; 1 mg/kg PO QD, Term Animals): 8.10 (0.66) g
Histopathology Glomerulus Diameter ([2]; 1 mg/kg PO QD, Term Animals): 87.78 (3.82)
Histopathology Summed Score ([2]; 1 mg/kg PO QD, Term Animals): 7.70 (1.07)
Kidney (paired) Weight (g) ([2]; 1 mg/kg PO QD, Term Animals): 0.576 (0.03) g
glomerulus diameter, reduction vs Vehicle Disease Controls ([2]; 1 mg/kg PO QD, all animals): 43%
percent of glomeruli with crescents, reduction ([2]; 1 mg/kg PO QD, all animals): 97%
serum clinical chemistries vs Vehicle Disease Controls ([2]; 1 mg/kg PO QD, all animals): significantly increased albumin (ALB), glucose (GLU), and sodium/potassium ratio (Na/K) and significantly reduced blood urea nitrogen (BUN), BUN/creatinine, phosphorus (P), potassium (K), cholesterol (CHOL), and amylase (AMY)
percent of glomeruli with crescents, reduction [2, 3]: 90%
serum clinical chemistries vs Vehicle Disease Controls [2, 3]: significantly reduced BUN and BUN/creatinine
Percent Survival ([2]; 5 mg/kg PO QD): 90%
mice that died or were sacrificed moribund prior to study termination ([2]; 5 mg/kg PO QD): 1 of 10
Histopathology Glomerulus Diameter ([2]; 5 mg/kg PO QD, All Animals): *80.53 (5.64)
Histopathology Interstitial Inflammation ([2]; 5 mg/kg PO QD, All Animals): 1.98 (0.29)
Histopathology Summed Score ([2]; 5 mg/kg PO QD, All Animals): *5.60 (0.98)
Kidney (paired) Weight (g) ([2]; 5 mg/kg PO QD, All Animals): 0.544 (0.02) g
Change in Body Weight (g) wk 1-12 ([2]; 5 mg/kg PO QD, Term Animals): 7.01 (0.67) g
Histopathology Glomerulus Diameter ([2]; 5 mg/kg PO QD, Term Animals): *80.17 (6.29)
Histopathology Interstitial Inflammation ([2]; 5 mg/kg PO QD, Term Animals): 1.97 (0.33)
Histopathology Summed Score ([2]; 5 mg/kg PO QD, Term Animals): *5.50 (1.08)
Kidney (paired) Weight (g) ([2]; 5 mg/kg PO QD, Term Animals): *0.531 (0.02) g
glomerulus diameter, reduction ([2]; 5 mg/kg PO QD, all animals): 60%
glomerulus score, reduction ([2]; 5 mg/kg PO QD, all animals): 58%
percent of glomeruli with crescents, reduction ([2]; 5 mg/kg PO QD, all animals): 99%
protein cast score, reduction ([2]; 5 mg/kg PO QD, all animals): 92%
serum clinical chemistries vs Vehicle Disease Controls ([2]; 5 mg/kg PO QD, all animals): significantly increased ALB, GLU, calcium (CA), and Na/K and significantly reduced BUN, BUN/creatinine, K, CHOL, and AMY
summed histopathology scores, reduction ([2]; 5 mg/kg PO QD, all animals): 63%
vasculitis, reduction ([2]; 5 mg/kg PO QD, all animals): 52%
absolute kidney weights, reduction vs Vehicle Disease Controls ([2]; 5 mg/kg PO QD): 16%
absolute mesenteric lymph node weights, reduction vs Vehicle Disease Controls ([2]; 5 mg/kg PO QD): 52%
glomerulus diameter, reduction [2, 4]: 46%
percent of glomeruli with crescents, reduction [2, 4]: 98%
protein cast score, reduction [2, 4]: 90%
serum clinical chemistries vs Vehicle Disease Controls [2, 4]: significantly increased ALB, albumin/globulin ratio (A/G), GLU and Na/K and significantly reduced BUN, BUN/creatinine, and K
summed histopathology scores, reduction [2, 4]: 54%
Percent Survival ([2]; 25 mg/kg PO QD): 100%
Histopathology Glomerulus Diameter ([2]; 25 mg/kg PO QD, All Animals): *74.78 (1.62)
Histopathology Interstitial Inflammation ([2]; 25 mg/kg PO QD, All Animals): *1.53 (0.15)
Histopathology Summed Score ([2]; 25 mg/kg PO QD, All Animals): *3.88 (0.34)
Kidney (paired) Weight (g) ([2]; 25 mg/kg PO QD, All Animals): 0.511 (0.01) g
Change in Body Weight (g) wk 1-12 ([2]; 25 mg/kg PO QD, Term Animals): 6.90 (0.56) g
Histopathology Glomerulus Diameter ([2]; 25 mg/kg PO QD, Term Animals): *74.78 (1.62)
Histopathology Interstitial Inflammation ([2]; 25 mg/kg PO QD, Term Animals): *1.53 (0.15)
Histopathology Summed Score ([2]; 25 mg/kg PO QD, Term Animals): *3.88 (0.34)
Kidney (paired) Weight (g) ([2]; 25 mg/kg PO QD, Term Animals): *0.511 (0.01) g
glomerulus crescent score, reduction ([2]; 25 mg/kg PO QD, all animals): 100%
glomerulus diameter, reduction ([2]; 25 mg/kg PO QD, all animals): 73%
glomerulus score, reduction ([2]; 25 mg/kg PO QD, all animals): 76%
interstitial inflammation, reduction ([2]; 25 mg/kg PO QD, all animals): 59%
percent of glomeruli with crescents, reduction ([2]; 25 mg/kg PO QD, all animals): 100%
protein cast score, reduction ([2]; 25 mg/kg PO QD, all animals): 98%
serum clinical chemistries vs Vehicle Disease Controls ([2]; 25 mg/kg PO QD, all animals): significantly increased ALB, GLU, calcium (CA), and Na/K and significantly reduced BUN, BUN/creatinine, K, CHOL, and AMY
summed histopathology scores, reduction ([2]; 25 mg/kg PO QD, all animals): 75%
vasculitis, reduction ([2]; 25 mg/kg PO QD, all animals): 52%
urine protein scores vs Vehicle Disease Controls ([2]; 25 mg/kg PO QD, all animals, mouse age 14-15 and 21-22): significantly reduced
absolute kidney weights, reduction vs Vehicle Disease Controls ([2]; 25 mg/kg PO QD): 19%
absolute mesenteric lymph node weights, reduction vs Vehicle Disease Controls ([2]; 25 mg/kg PO QD): 49%
glomerulus crescent score, reduction [2, 5]: 100%
glomerulus diameters, reduction [2, 5]: 63%
glomerulus score, reduction [2, 5]: 72%
interstitial inflammation, reduction [2, 5]: 51%
percent of glomeruli with crescents, reduction [2, 5]: 100%
protein cast score, reduction [2, 5]: 97%
serum clinical chemistries vs Vehicle Disease Controls [2, 5]: significantly increased ALB and CA and significantly reduced BUN and BUN/creatinine
summed histopathology scores, reduction [2, 5]: 68%
vasculitis, reduction [2, 5]: 47%
urine protein scores vs Vehicle Disease Controls ([2]; 25 mg/kg PO QD, term animals only, mouse age 22): significantly reduced
anti-dsDNA IgG levels vs Vehicle Disease Controls ([2]; 1, 5 or 25 mg/kg PO QD): not significantly affected
body weight change vs Vehicle Disease Controls ([2]; 1, 5 or 25 mg/kg PO QD): did not differ significantly
cumulative lymph node weights vs Vehicle Disease Controls ([2]; 1, 5 or 25 mg/kg PO QD): did not differ significantly
lymphadenopathy scores vs Vehicle Disease Controls ([2]; 1, 5 or 25 mg/kg PO QD): not significantly affected
skin lesion scores vs Vehicle Disease Controls ([2]; 1, 5 or 25 mg/kg PO QD): not significantly affected
spleen weights vs Vehicle Disease Controls ([2]; 1, 5 or 25 mg/kg PO QD): did not differ significantly

Reference: patent US20170143712A1, “Methods of Treating Cancers, Immune and Autoimmune Diseases, and Inflammatory Diseases Based on BTK Occupancy and BTK Resynthesis Rate” (Acerta Pharma B.V., priority 2014, published 2017)
